Results: ChEMBL document CHEMBL1938327, “Thiazolides as novel antiviral agents. 2. Inhibition of hepatitis C virus replication” (J Med Chem, 2011)

Legend:
[1] = system: Hepatitis C virus; assay: Antiviral activity against HCV genotype 1b infected in Ava5 cells assessed as inhibition of viral replication after 3 days by blot hybridization analysis; type: functional, organism-based, Hepacivirus hominis; conditions: Ava5, 72 h
[2] = Cytotoxicity against human Ava5 cells after 3 days by neutral red dye assay; type: cell-based
[3] = Selectivity index, ratio of CC50 for human Ava5 cells to EC50 for HCV genotype 1b infected in human Ava5 cells
[4] = system: Hepatitis C virus; assay: Antiviral activity against HCV genotype 1a infected in Huh7.5 cells assessed as inhibition of viral replication after 3 days by blot hybridization analysis; type: functional, organism-based, Hepacivirus hominis; conditions: subtype 1a, Huh7.5, 72 h
[5] = Cytotoxicity against human Huh7.5 cells after 3 days by neutral red dye assay; type: cell-based, Huh-7
[6] = system: Canis familiaris; assay: Drug metabolism in dog assessed as deactyl derivative formation at 1 mg/kg, iv after 1 hr; type: ADME, organism-based, Canis lupus familiaris; parameters: dose 1 mg/kg, route intravenous; conditions: in vivo
[7] = system: Canis familiaris; assay: Drug metabolism in dog assessed as glucurono-conjugate formation at 1 mg/kg, iv after 2 hrs; type: ADME, organism-based, Canis lupus familiaris; parameters: dose 1 mg/kg, route intravenous; conditions: in vivo
[8] = Toxicity in po dosed dog; type: organism-based, Canis lupus familiaris; conditions: in vivo
[9] = species: Rattus norvegicus; assay: Toxicity in rat; type: organism-based; conditions: in vivo
[10] = Selectivity index, ratio of CC50 for human Huh7.5 cells to EC50 for HCV genotype 1a infected in human Huh7.5 cells; parameters: species or system Huh-7
[11] = Aqueous solubility of the compound; type: physicochemical; conditions: buffer

| SMILES | EC50 [1] | EC90 [1] | CC50 at 72 h [2] | Ratio CC50/EC50 [3] | EC50 [4] | EC90 [4] | CC50 at 72 h [5] | Drug metabolism [6] | Drug metabolism [7] | MTD [8] | Activity [9] | Ratio CC50/EC50 [10] | solubility [11] |
| --- | --- | --- | --- | --- | --- | --- | --- | --- | --- | --- | --- | --- | --- |
| Cc1cnc(NC(=O)c2ccccc2O)s1 | 4.2 µM | 14 µM | 45 µM | 11 | – | – | – | – | – | – | – | – | – |
| O=C(Nc1ncc(Cl)s1)c1ccccc1O | 10 µM | 10 µM | 15 µM | – | – | – | – | – | – | – | – | – | – |
| Cc1ccc(O)c(C(=O)Nc2ncc(Cl)s2)c1 | > 10 µM | > 10 µM | 2.3 µM | – | 10 µM | 10 µM | 16 µM | Active | Active | – | – | – | – |
| Cc1ccc(C(=O)Nc2ncc(Cl)s2)c(O)c1 | > 10 µM | > 10 µM | 30 µM | – | – | – | – | – | – | – | – | – | – |
| Cc1cccc(C(=O)Nc2ncc(Br)s2)c1O | > 1.9 µM | > 10 µM | 15 µM | 11 | > 10 µM | > 10 µM | 25 µM | – | – | < 25 mg/kg | Toxic | – | – |
| CC(=O)Oc1ccccc1C(=O)Nc1ncc(Br)s1 | 3.8 µM | 11 µM | 12 µM | 3 | 3.3 µM | 10 µM | 21 µM | – | – | – | – | 6 | – |
| CC(=O)Oc1ccc(C)cc1C(=O)Nc1ncc(Br)s1 | 3 µM | 7.8 µM | 10 µM | 3.3 | 3 µM | 8.6 µM | 11 µM | – | – | – | – | 3.7 | – |
| O=C(Nc1ncc(Br)s1)c1ccccc1O | 4.9 µM | 10 µM | 20 µM | 20 | 2.8 µM | 9.4 µM | 88 µM | – | – | – | – | 31.4 | – |
| Cc1nc(NC(=O)c2ccccc2O)sc1Br | > 10 µM | > 10 µM | 15 µM | – | – | – | – | – | – | – | – | – | – |
| O=C(Nc1ncc(F)s1)c1ccccc1O | > 10 µM | > 10 µM | 24 µM | – | > 10 µM | > 10 µM | 2.9 µM | – | – | – | – | – | – |
| O=C(Nc1nc(-c2ccccc2)c(Br)s1)c1ccccc1O | > 2.2 µM | > 7 µM | 16 µM | 7.3 | > 10 µM | > 10 µM | 62 µM | – | – | – | – | – | – |
| O=C(Nc1ncc(Br)s1)c1cccc(Cl)c1O | > 5.2 µM | > 10 µM | 10 µM | 2.7 | > 10 µM | > 10 µM | 11 µM | – | – | – | – | – | – |
| CC(=O)Nc1cnc(NC(=O)c2ccccc2O)s1 | > 10 µM | > 10 µM | 11 µM | – | – | – | – | – | – | – | – | – | – |
| CS(=O)(=O)c1csc(NC(=O)c2ccccc2O)n1 | 0.5 µM | 1.7 µM | 85 µM | 170 | – | – | – | – | – | – | – | – | – |
| N#Cc1cnc(NC(=O)c2ccccc2O)s1 | > 10 µM | > 10 µM | 15 µM | 4.1 | > 10 µM | > 10 µM | 11 µM | – | – | – | – | – | – |
| CC(=O)Oc1ccccc1C(=O)Nc1ccc(Br)cc1 | 0.45 µM | 3.4 µM | 0.6 µM | 1.3 | – | – | – | – | – | – | – | – | – |
| CC(=O)Oc1ccccc1C(=O)Nc1ncc(Cl)s1 | 0.23 µM | 1.1 µM | 4.3 µM | 16 | 0.4 µM | 1.9 µM | 5.7 µM | – | – | – | – | 14 | – |
| O=C(Nc1ncc([N+](=O)[O-])s1)c1cc(Cl)ccc1O | 2 µM | 5.9 µM | > 100 µM | >50 | – | – | – | – | – | – | – | – | – |

| SMILES | EC50 [1] | EC90 [1] | CC50 at 72 h [2] | Ratio CC50/EC50 [3] | EC50 [4] | EC90 [4] | CC50 at 72 h [5] | Drug metabolism [6] | Drug metabolism [7] | MTD [8] | Activity [9] | Ratio CC50/EC50 [10] | solubility [11] |
| --- | --- | --- | --- | --- | --- | --- | --- | --- | --- | --- | --- | --- | --- |
| CC(=O)Oc1c(C)cccc1C(=O)Nc1ncc(Cl)s1 | 0.59 µM | 8.9 µM | 12 µM | 11 | 1 µM | 3.8 µM | 14 µM | – | – | – | – | 14 | – |
| CC(=O)Oc1ccccc1C(=O)Nc1ncc(C(F)(F)F)s1 | > 4.3 µM | > 8.2 µM | 1.7 µM | 0.9 | > 10 µM | > 10 µM | 14 µM | – | – | – | – | – | soluble |
| CC(=O)Oc1ccccc1C(=O)Nc1nc(C(F)(F)F)cs1 | > 10 µM | > 10 µM | 2.8 µM | – | – | – | – | – | – | – | – | – | soluble |
| CCOC(=O)c1cnc(NC(=O)c2ccccc2O)s1 | > 10 µM | > 10 µM | 14 µM | – | – | – | – | – | – | – | – | – | – |
| C[S+]([O-])c1csc(NC(=O)c2ccccc2O)n1 (stereo unspecified) | 2 µM | 4.6 µM | 63 µM | 32 | – | – | – | – | – | – | – | – | – |
| CC(=O)Oc1ccccc1C(=O)Nc1cccc(F)c1 | 3.8 µM | 11 µM | > 100 µM | 26 | – | – | – | – | – | – | – | – | – |
| O=C(Nc1cccc(F)c1)c1ccccc1O | 0.13 µM | 0.83 µM | 3.4 µM | 26 | – | – | – | – | – | – | – | – | – |
| O=C(Nc1ccccc1Cl)c1ccccc1O | 3.8 µM | 21 µM | 72 µM | 19 | – | – | – | – | – | – | – | – | – |
| COC(=O)c1ccc(NC(=O)c2ccccc2OC(C)=O)cc1 | 0.06 µM | 0.46 µM | 4.4 µM | 76 | – | – | – | – | – | – | – | – | – |
| CS(=O)(=O)c1ccc(NC(=O)c2ccccc2O)cc1 | > 10 µM | > 10 µM | > 100 µM | – | – | – | – | – | – | – | – | – | – |
| CS(=O)(=O)c1cnc([N-]C(=O)c2ccccc2O)s1.[Na+] | 1.5 µM | 5.2 µM | 43 µM | 29 | – | – | – | – | – | – | – | – | – |
| O=C(Nc1cc(C(F)(F)F)cc(C(F)(F)F)c1)c1ccccc1O | 3.5 µM | 8.1 µM | 3.7 µM | 1.1 | – | – | – | – | – | – | – | – | soluble |
| O=C(Nc1cc(C(F)(F)F)ccc1Cl)c1ccccc1O | 0.01 µM | 0.03 µM | 0.33 µM | 65.2 | – | – | – | – | – | – | – | – | – |
| O=C(Nc1nc(-c2ccccc2)cs1)c1ccccc1O | > 3.5 µM | ≥ 10 µM | 14 µM | 7.4 | > 10 µM | > 10 µM | 29 µM | – | – | – | – | – | – |
| O=C(Nc1ccc([N+](=O)[O-])cc1Cl)c1cc(Cl)ccc1O [NICLOSAMIDE] | 0.16 µM | 0.7 µM | 10 µM | 16.2 | – | – | – | – | – | – | – | – | soluble |
| CC(=O)Oc1ccccc1C(=O)Nc1ncc([N+](=O)[O-])s1 [NITAZOXANIDE] | 0.21 µM | 0.93 µM | 35 µM | 143 | 0.33 µM | 1.1 µM | 49 µM | – | – | – | – | 149 | – |
| O=C(Nc1ncc([N+](=O)[O-])s1)c1ccccc1O [TIZOXANIDE] | 0.15 µM | 0.81 µM | 15 µM | 100 | 0.25 µM | 1 µM | 14 µM | – | – | – | – | 56 | – |
